Measured values taken from ChEMBL document CHEMBL2346658, “8,8-dialkyldihydroberberines with potent antiprotozoal activity” (J Nat Prod, 2013).
Where a name gives a salt, the structure may show the parent alone. Calls of active or inactive are those of the source. No cut-off for these calls is given here.

How the values were obtained:
Leishmania donovani [1] = test: Antileishmanial activity against Leishmania donovani LV82 infected in BALB/c mouse model of visceral leishmaniasis assessed as inhibition of liver parasitemia at 10 mg/kg/day, ip for 5 days starting 7 days post-infection; type: functional; details: route intraperitoneal
[2] = test system: Trypanosoma brucei brucei; test: Antitrypanosomal activity against Trypanosoma brucei brucei blood-stream forms; type: functional, organism-based
Leishmania donovani [3] = test: Antileishmanial activity against Leishmania donovani; type: functional, organism-based
Plasmodium falciparum = test: Antimalarial activity against erythrocyte stage Plasmodium falciparum 3D7; type: functional, organism-based
[4] = Binding affinity to poly(dA.dT) DNA (unknown origin) assessed as change in melting temperature
[5] = test system: Trypanosoma brucei rhodesiense; test: Antitrypanosomal activity against Trypanosoma brucei rhodesiense STIB900 infected in NMRI mouse assessed as infection cure rate at 1 mg/kg/day for 4 days starting from 3 to 6 days post-infection measured on day 10; type: functional, organism-based
[6] = test system: Trypanosoma brucei rhodesiense; test: Antitrypanosomal activity against Trypanosoma brucei rhodesiense STIB900 infected in NMRI mouse assessed as infection cure rate at 1 mg/kg/day for 4 days starting from 3 to 6 days post-infection measured on day 7; type: functional, organism-based
[7] = Selectivity index, ratio of IC50 for african green monkey Vero cells to IC50 for erythrocyte stage Plasmodium falciparum 3D7; type: toxicity, cell-based; details: read-out: Ratio IC50
[8] = Selectivity index, ratio of IC50 for african green monkey Vero cells to IC50 for Leishmania donovani; type: toxicity, cell-based; details: read-out: Ratio IC50
[9] = Selectivity index, ratio of IC50 for african green monkey Vero cells to IC50 for Trypanosoma brucei brucei blood-stream forms; type: toxicity, cell-based; details: read-out: Ratio IC50
Leishmania donovani [10] = test: Potency index, ratio of IC50 for chloroquine to IC50 for compound against Leishmania donovani; type: functional
Vero = test: Cytotoxicity against african green monkey Vero cells; type: cell-based; details: Chlorocebus sabaeus
[11] = test system: Trypanosoma brucei rhodesiense; test: Antitrypanosomal activity against Trypanosoma brucei rhodesiense STIB900 infected in NMRI mouse assessed as infection cure rate at 10 mg/kg/day for 4 days starting from 3 to 6 days post-infection measured on day 10; type: functional, organism-based
[12] = test system: Trypanosoma brucei rhodesiense; test: Antitrypanosomal activity against Trypanosoma brucei rhodesiense STIB900 infected in NMRI mouse assessed as infection cure rate at 10 mg/kg/day for 4 days starting from 3 to 6 days post-infection measured on day 7; type: functional, organism-based
Mus musculus = test: Toxicity in BALB/c mouse assessed as induction of overt toxicity at 10 mg/kg/day, ip for 5 days; type: organism-based; parameters: route intraperitoneal; details: in vivo, 120 h

Compound	inhibition in vivo at 10 mg/kg/day (Leishmania donovani [1])	IC50 [2]	IC50 (Leishmania donovani [3])	IC50 (Plasmodium falciparum)	ΔTm [4]	IC50 (Vero)	other results
CCCCCCCCCCCCCCCCOP(=O)([O-])OCC[N+](C)(C)C [MILTEFOSINE]	97%	–	–	–	–	–	–
COc1ccc2c(c1OC)C(C)(C)N1CCc3cc4c(cc3C1C2)OCO4 (stereo unspecified) [8,8-DIMETHYLCANADINE]	–	52000 nM	7300 nM	7300 nM	–	–	–
C[C@@H]1[C@H](O)[C@@H](C)/C=C/C=C/C=C/C=C/C=C/C=C/C=C/[C@H](O[C@@H]2O[C@H](C)[C@@H](O)[C@H](N)[C@@H]2O)C[C@@H]2O[C@](O)(C[C@@H](O)C[C@@H](O)[C@H](O)CC[C@@H](O)C[C@@H](O)CC(=O)O[C@H]1C)C[C@H](O)[C@H]2C(=O)O [AMPHOTERICIN B]	–	–	46 nM	–	–	–	–
CCC1(CC)c2c(ccc(OC)c2OC)C(=O)c2c3cc4c(cc3cc[n+]21)OCO4.[Cl-]	–	2 nM	290 nM	20 nM	0.5 °C	39000 nM	Activity [5]: inactive; Activity [6]: Active; selectivity ratio [7]: > 600; selectivity ratio [8]: > 100; selectivity ratio [9]: 3000; Ratio IC50 (Leishmania donovani [10]): 4
CCC1(CC)c2c(ccc(OC)c2OC)CC2c3cc4c(cc3CCN21)OCO4 (stereo unspecified) [8,8-DIETHYLCANADINE]	–	230 nM	8900 nM	1700 nM	–	–	–
COc1cc([C@@H]2c3cc4c(cc3[C@H](O)[C@H]3COC(=O)[C@H]23)OCO4)cc(OC)c1OC [PODOFILOX]	–	–	–	–	–	17 nM	–
CCC1(CC)c2c(ccc(OC)c2OC)CC2=[N+]1CCc1cc3c(cc12)OCO3.[Cl-] [8,8-Diethyldihydroberberine]	29%	5.3 nM	100 nM	77 nM	0.5 °C	18000 nM	Activity [11]: inactive; Activity [12]: Active; Activity (Mus musculus): Non-toxic; selectivity ratio [8]: > 100; selectivity ratio [9]: 3000
Cc1ccc(C(=O)Nc2ccc(S(=O)(=O)O)c3cc(S(=O)(=O)O)cc(S(=O)(=O)O)c23)cc1NC(=O)c1cccc(NC(=O)Nc2cccc(C(=O)Nc3cc(C(=O)Nc4ccc(S(=O)(=O)O)c5cc(S(=O)(=O)O)cc(S(=O)(=O)O)c45)ccc3C)c2)c1 [SURAMIN]	–	130 nM	–	–	–	–	–
COc1ccc2cc3[n+](cc2c1OC)CCc1cc2c(cc1-3)OCO2 [BERBERINE SULFATE]	–	–	17000 nM	–	3.5 °C	> 200000 nM	–
CCCC1(CCC)c2c(ccc(OC)c2OC)CC2=[N+]1CCc1cc3c(cc12)OCO3.[Cl-] [8,8-Dipropyldihydroberberine]	32%	53 nM	550 nM	30 nM	0 °C	19000 nM	Activity (Mus musculus): Non-toxic; selectivity ratio [7]: > 600; Ratio IC50 (Leishmania donovani [10]): 4
COc1ccc2c(c1OC)C(C)(C)[N+]1=C(C2)c2cc3c(cc2CC1)OCO3.[Cl-] [8,8-dimethyldihydroberberine]	46%	4600 nM	200 nM	63 nM	0.3 °C	8800 nM	Activity (Mus musculus): Non-toxic
